Source: paper PMC7996082, “The translocator protein ligands as mitochondrial functional modulators for the potential anti-Alzheimer agents” (Journal of Enzyme Inhibition and Medicinal Chemistry, 2021)

Key:
[1] = target: T1, hERG channel (Homo sapiens, UniProt Q12809); experiment: hERG inhibition assay (automated patch-clamp, CHO-K1 Tet-On hERG cells); format: cell-based; details: patch-clamp, ± SD
T1 construct: host or cells: CHO-K1 Tet-On hERG cells
Method: For automated patch-clamp NPC-16 Patchliner (Nanion Technologies, München, Germany) recordings, CHO-K1 Tet-On hERG cells (IonGate Biosciences GmbH, Frankfurt, Germany) were plated into 100-mm cell culture dishes. Whole-cell currents were recorded with the intracellular solution containing: 50 mM KCl, 60 mM KF, 10 mM NaCl, 2 mM MgCl2, 20 mM EGTA and 10 mM HEPES (pH 7.2), and with the extracellular solution containing: 140 mM NaCl, 4 mM KCl, 2 mM CaCl2, 1 mM MgCl2, 5 mM Glucose and 10 HEPES (pH 7.4). To assist stable seal formations, the seal enhancer containing: 80 mM NaCl, 3 mM KCl, 35 mM CaCl2, 10 mM MgCl2 and 10 mM HEPES (pH 7.4) was used only at the seal formation step. Prior to the whole-cell recordings, the external seal enhancing solution was exchanged to the extracellular solution described above. hERG channel currents were recorded using the parallel EPC-10 patch-clamp amplifiers (HEKA Elektronik, Lambrecht/Pfalz, Germany), and low-pass filtered (10 kHz) with a 4-pole Bessel filter. Cell suspension and patch solutions were automatically added onto the four recording wells in the microfabricated disposable chip (NPC-16 Chip, Nanion Technologies, München, Germany). To obtain the inhibitory constants, hERG tail currents were evoked by repolarizing steps to −50 mV for 500 ms preceded by a 500-ms depolarisation potential of +20 mV at a holding potential of −80 mV with a 20-s sweep interval. Whole-cell currents were acquired and digitised at 5 kHz using Patchmaster (HEKA Elektronik, Lambrecht/Pfalz, Germany). The extracellular solution was exchanged to the extracellular solution containing each blocker via four pipette tips of NPC-16 Patchliner using a 4-fold volume of solution (40 µL) with a speed of 4 µL/s, and the exchanged blocker solution was applied for 100–200 s to the patch-clamped cells until blocker binding had reached equilibrium by monitoring hERG tail currents. Whole-cell recordings were analysed using the Patchmaster/Fitmaster (HEKA Elektronik, Lambrecht/Pfalz, Germany), IGOR Pro (WaveMetrics Inc., Portland, OR, USA), and the GraphPad Prism 4.0 (GraphPad Software, Inc., La Jolla, CA, USA) software.

[2] = Liver microsomal stability; format: in vitro ADME; details: human, liver microsomes, 1 µM compound, 0.5 mg/mL microsomes, 30 min, 37 °C; read-out: Human Liver Microsomal Stability (% remaining after 30 min)
Method: Liver microsomes (human, dog, rat, and mouse; 0.5 mg/mL) were incubated with 1 µM of each test compound in the presence of potassium phosphate buffer (PPB) for 5 min at 37 °C. A solution of the NADPH regeneration system (#44332000, Oriental Yeast Co., Japan) was added to begin metabolic reactions of liver microsomes. The resulting mixtures were incubated for 30 min at 37 °C, and the reaction was terminated by the addition of a cold MeCN solution containing an internal standard (chlorpropamide). The mixture was separated by centrifugation (14,000 rpm for 5 min at 4 °C), and the supernatant was analysed by LC-MS/MS (Shimadzu Nexera XR system and TSQ vantage; Thermo Scientific).

[3] = MTT assay: HT22 cell viability with compound alone; format: cell-based, mouse; details: mouse, HT22 cells; HT22 cell viability after 24 h of treatment with 5 μM compound, no Aβ
Method: To a clear 96-well plate (FALCON), the cultured HT-22 cells were seeded in a number of 5,000 per well 24 h prior to the assay. A solution of each test compound (5 µM, 25 µL) was added to each well. After 24 h of incubation at 37 °C, the cells were treated with a 10 µL of MTT solution (3–(4,5-dimethylthiazol-2-yl)-2,5-diphenyltetrazolium bromide, Sigma-Aldrich), incubated for 2 h at 37 °C, and were treated with 135 µL of MTT solubilising solution (10% Triton-X 100 in isopropanol with 0.1 M HCl) for 2 h at 37 °C. The % values of cell viability were determined by using the optical density (OD) values at 560 nm, and normalised by taking the vehicle control (5 µM of DMSO) as […].

[4] = target: T2, CYP2C19 (Homo sapiens, UniProt P33261); experiment: CYP inhibition assay (Vivid CYP450 screening kit); format: in vitro ADME; details: 10 μM compound
T2 construct: purchased Invitrogen, Madison, WI, USA
T2 sequence (P33261 whole entry): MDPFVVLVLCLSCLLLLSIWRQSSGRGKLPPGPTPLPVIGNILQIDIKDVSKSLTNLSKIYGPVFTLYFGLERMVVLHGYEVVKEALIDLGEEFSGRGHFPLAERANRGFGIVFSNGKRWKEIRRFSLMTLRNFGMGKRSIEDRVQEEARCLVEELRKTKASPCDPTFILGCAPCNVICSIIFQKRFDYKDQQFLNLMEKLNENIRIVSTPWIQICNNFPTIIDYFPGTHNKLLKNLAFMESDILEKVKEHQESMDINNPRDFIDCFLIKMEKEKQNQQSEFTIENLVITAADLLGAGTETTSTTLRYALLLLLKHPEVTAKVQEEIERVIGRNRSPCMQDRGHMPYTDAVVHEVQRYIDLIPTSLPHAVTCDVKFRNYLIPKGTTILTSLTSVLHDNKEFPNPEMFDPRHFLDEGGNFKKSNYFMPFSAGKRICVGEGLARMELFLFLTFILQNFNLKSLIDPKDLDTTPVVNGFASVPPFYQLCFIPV
Method: (§1) Human CYP450 (CYP1A2, 2D6, 2C9, 2C19, and 3A4) activities were determined by using the Vivid® CYP450 screening kit (Invitrogen, Madison, WI, USA) in a clear 96-well plate. Five positive controls were used as 10 mM solutions in MeCN for five different CYP450 enzymes: CYP1A2 (α-naphthoflavone), CYP2D6 (quinidine), CYP2C9 (sulfaphenazole), CYP2C19 (lansoprazole), and CYP3A4 (ketoconazole). Each sample (test compounds, positive inhibition controls, and solvent controls) was added into each well with the Master Pre-Mix [CYP450 BACULOSOMES® Reagent (recombinant human CYP450 isozyme and rabbit NADPHP450 reductase) and Regeneration System (3.3 mM glucose-6-phosphate and 0.3 U/ml glucose-6-phosphate dehydrogenase in 100 mM potassium phosphate, pH 8.0)]. The mixture was incubated for 5 min at 37 °C, and the Vivid® CYP substrates and 0.1 mM NADP^+ buffer were added to initiate the CYP450 enzyme reaction. The % remaining activities of CYP450 were measured after 20 min by using a fluorescent plate reader (Flexstation® 3, Molecular Devices, USA).

[5] = target: T3, CYP2D6 (Homo sapiens, UniProt P10635); experiment: CYP inhibition assay (Vivid CYP450 screening kit); format: in vitro ADME; details: 10 μM compound
T3 construct: purchased Invitrogen, Madison, WI, USA
T3 sequence (P10635 whole entry): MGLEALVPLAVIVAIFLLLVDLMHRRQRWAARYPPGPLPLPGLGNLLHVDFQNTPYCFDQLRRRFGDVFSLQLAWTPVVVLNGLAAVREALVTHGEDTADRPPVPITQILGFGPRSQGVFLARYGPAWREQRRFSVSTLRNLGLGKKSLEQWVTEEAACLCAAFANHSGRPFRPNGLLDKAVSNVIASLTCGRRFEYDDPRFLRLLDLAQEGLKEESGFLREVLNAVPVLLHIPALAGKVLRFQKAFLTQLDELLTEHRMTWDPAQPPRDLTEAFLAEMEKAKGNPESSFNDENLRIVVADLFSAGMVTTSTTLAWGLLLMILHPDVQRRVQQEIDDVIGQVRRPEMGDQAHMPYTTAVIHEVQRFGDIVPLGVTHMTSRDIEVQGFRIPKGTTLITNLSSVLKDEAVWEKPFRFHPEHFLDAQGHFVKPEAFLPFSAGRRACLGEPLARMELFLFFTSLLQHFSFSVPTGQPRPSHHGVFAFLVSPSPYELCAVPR
Method: as §1

[6] = target: T4, CYP1A2 (Homo sapiens, UniProt P05177); experiment: CYP inhibition assay (Vivid CYP450 screening kit); format: in vitro ADME; details: 10 μM compound
T4 construct: purchased Invitrogen, Madison, WI, USA
T4 sequence (P05177 2-516 limits assumed): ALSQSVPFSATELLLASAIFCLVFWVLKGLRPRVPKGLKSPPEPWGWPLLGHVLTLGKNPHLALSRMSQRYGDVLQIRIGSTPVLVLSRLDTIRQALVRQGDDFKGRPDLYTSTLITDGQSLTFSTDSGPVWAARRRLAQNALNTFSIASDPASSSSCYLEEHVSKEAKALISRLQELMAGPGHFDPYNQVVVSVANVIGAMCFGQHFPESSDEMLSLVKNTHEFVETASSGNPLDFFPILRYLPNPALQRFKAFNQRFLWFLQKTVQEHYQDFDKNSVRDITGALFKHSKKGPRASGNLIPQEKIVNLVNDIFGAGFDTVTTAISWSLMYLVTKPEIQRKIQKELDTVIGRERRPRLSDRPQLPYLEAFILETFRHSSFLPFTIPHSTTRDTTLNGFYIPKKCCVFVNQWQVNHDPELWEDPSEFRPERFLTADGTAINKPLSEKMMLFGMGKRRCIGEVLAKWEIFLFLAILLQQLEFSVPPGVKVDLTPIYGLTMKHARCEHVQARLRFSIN
Method: as §1

[7] = target: T5, CYP2C9 (Homo sapiens, UniProt P11712); experiment: CYP inhibition assay (Vivid CYP450 screening kit); format: in vitro ADME; details: 10 μM compound
T5 construct: purchased Invitrogen, Madison, WI, USA
T5 sequence (P11712 whole entry): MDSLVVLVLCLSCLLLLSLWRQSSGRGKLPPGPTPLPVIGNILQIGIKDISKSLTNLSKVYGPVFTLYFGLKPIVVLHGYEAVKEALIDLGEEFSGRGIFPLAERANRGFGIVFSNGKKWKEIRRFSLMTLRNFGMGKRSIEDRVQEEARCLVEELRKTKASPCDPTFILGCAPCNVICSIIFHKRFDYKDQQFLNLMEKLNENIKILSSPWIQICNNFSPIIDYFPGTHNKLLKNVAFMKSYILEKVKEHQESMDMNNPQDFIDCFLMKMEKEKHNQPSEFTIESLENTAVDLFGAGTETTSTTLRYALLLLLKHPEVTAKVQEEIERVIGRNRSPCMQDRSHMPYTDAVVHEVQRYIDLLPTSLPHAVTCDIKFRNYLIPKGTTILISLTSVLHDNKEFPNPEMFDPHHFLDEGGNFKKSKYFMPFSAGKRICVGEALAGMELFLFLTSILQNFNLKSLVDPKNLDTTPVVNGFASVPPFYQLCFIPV
Method: as §1

[8] = target: T6, CYP3A4 (Homo sapiens, UniProt P08684); experiment: CYP inhibition assay (Vivid CYP450 screening kit); format: in vitro ADME; details: 10 μM compound
T6 construct: purchased Invitrogen, Madison, WI, USA
T6 sequence (P08684 2-503 limits assumed): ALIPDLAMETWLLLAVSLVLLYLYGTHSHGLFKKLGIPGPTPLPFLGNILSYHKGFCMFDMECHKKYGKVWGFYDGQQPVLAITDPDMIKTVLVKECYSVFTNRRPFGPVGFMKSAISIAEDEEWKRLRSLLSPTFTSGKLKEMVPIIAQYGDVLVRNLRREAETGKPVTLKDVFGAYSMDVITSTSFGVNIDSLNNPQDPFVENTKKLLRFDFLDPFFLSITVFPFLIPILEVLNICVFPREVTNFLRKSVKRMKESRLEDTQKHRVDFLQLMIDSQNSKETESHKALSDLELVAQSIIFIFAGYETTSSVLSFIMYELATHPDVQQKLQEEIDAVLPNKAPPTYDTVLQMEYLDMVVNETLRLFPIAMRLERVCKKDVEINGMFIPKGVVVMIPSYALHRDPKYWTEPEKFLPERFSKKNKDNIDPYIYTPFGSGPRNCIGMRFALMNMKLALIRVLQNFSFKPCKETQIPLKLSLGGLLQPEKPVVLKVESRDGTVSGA
Method: as §1

[9] = system: HT-22 (mouse hippocampal cells) cells treated with Aβ; experiment: JC-1 assay: recovery of mitochondrial membrane potential (ΔΨm) after Aβ; format: cell-based; details: 5 μM compound, 5 μM Aβ, HT22 cells; 0% = Aβ-induced damaged condition, 100% = normal condition
Method: Thirty thousand HT-22 cells per well were seeded into a clear 96-well plate (FALCON) at 200 µL per well one day prior to assay. 750 mM of JC-1 (Stratagene) in DMSO stock solution was dissolved into phenol red-free Opti-MEM (GIBCO) medium to make final concentration of 7.5 mM JC-1 per well. Medium was removed from the plate, and 100 µL per well of JC-1 was added. The sample plates were incubated for 1 h and 15 min at 37 °C and washed twice with 100 µL per well of PBS. Subsequently, cells were treated with a 25 µL solution of each compound at 10 µM in Opti-MEM and incubated at 37 °C for 10 min followed by addition of a 25 µL of Aβ (American peptide, 1-42) solution at 10 µM. Fluorescence was measured at every one hour for three hours at ex/em 530 nm/580 nm (“red”) and ex/em 485 nm/530 nm (“green”) by using the Flexstation® 3 (Molecular Devices, USA) reader. The ratio of green to red fluorescence was calculated and normalised by taking the percent changes using vehicle control as 100%.
The selected 56 compounds were purchased and tested by in vitro cell-based assays. Four different cell-based assays (JC-1, MTT, ATP production, and cellular ROS assays) were carried out sequentially. First, the JC-1 assay was performed to screen all 56 compounds, VH001–VH056 (Supplementary Table S1). Since mitochondrial membrane depolarisation is one of the distinct signs of mPTP opening, the mitochondrial uptake of a fluorescent JC-1 dye (5,59,6,69-tetrachloro-1,19,3,39-tetraethylbenzimidazolocarbocyanine iodide) was measured to evaluate the effects of each compound on the mitochondrial membrane potential (ΔΨm). HT22 cells, a mouse hippocampal cell line, were treated with 5 µM of Aβ, incubated with each compound at the same concentration of 5 µM, and subsequently treated with JC-1. On the basis of changes in the red/green fluorescence intensity ratio between the cells treated with Aβ and control, the percent recovery of ΔΨm for each compound was calculated and normalised to the ΔΨm of healthy cells as 100%.
Compd Structure ∆Ψm at 5 Compd Structure ∆Ψm at 5 […]
a After the treatment of each compound (5 μM) and Aβ (5 μM) in HT22 cell, the increase of fluorescence ratio (green/red) was measured and normalized by taking the change of the ratio between 0% (Aβ-induced damaged condition) and 100% (normal condition in the absence of Aβ).

T1 sequence (Q12809 whole entry): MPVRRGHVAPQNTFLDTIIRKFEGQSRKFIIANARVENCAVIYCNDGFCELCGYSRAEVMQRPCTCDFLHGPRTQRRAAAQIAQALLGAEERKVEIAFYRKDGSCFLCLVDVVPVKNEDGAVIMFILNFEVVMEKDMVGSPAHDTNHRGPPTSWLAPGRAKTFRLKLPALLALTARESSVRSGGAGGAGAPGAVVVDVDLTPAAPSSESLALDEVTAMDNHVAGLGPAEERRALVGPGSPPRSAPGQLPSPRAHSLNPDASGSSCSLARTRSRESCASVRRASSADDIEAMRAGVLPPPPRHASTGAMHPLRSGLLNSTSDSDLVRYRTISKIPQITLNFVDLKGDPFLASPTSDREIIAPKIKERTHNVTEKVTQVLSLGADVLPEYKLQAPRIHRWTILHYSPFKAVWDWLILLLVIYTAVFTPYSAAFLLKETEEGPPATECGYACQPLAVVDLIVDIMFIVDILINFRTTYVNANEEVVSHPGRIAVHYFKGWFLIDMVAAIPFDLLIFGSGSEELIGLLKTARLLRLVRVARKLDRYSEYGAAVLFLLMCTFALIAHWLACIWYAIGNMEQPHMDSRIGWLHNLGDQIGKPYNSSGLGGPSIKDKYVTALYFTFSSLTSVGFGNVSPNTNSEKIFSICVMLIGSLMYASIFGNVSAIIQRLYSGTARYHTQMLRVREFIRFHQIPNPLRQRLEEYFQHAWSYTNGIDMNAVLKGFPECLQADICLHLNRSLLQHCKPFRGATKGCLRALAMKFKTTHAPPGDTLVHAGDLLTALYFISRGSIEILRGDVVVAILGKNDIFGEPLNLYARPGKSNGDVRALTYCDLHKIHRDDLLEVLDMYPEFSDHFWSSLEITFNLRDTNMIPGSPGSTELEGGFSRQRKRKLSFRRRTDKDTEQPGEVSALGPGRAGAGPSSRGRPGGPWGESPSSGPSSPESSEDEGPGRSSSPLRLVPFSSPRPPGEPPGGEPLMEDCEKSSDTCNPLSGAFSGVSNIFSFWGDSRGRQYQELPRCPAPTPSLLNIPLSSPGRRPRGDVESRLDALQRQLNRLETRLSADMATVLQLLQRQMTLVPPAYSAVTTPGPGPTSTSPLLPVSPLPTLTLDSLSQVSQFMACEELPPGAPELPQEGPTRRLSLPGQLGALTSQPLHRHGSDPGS

Row | remaining at 0.5 h, 1 µM [2] [%] | CYP450 (% remaining Activity at 10 μM) CYP2C19 [4] [%] | CYP450 (% remaining Activity at 10 μM) CYP2D6 [5] [%] | CYP450 (% remaining Activity at 10 μM) CYP1A2 [6] [%] | CYP450 (% remaining Activity at 10 μM) CYP2C9 [7] [%] | CYP450 (% remaining Activity at 10 μM) CYP3A4 [8] [%] | Structure (SMILES) | IC50 [1] [µM] | viability at 24 h, 5 µM [3] [%] | Recovery of ΔΨm (%) [9] [%]
1 | < 10 | 35.7 | 82.0 | 150.5 | 32.8 | 56.6 | CCOc1ccc(-n2c(SCC(=O)N(CC)Cc3ccccc3)nc3sc4c(c3c2=O)CCN(C(C)=O)C4)cc1 [Compound 33] | 2.77 ± 1.18 | 104 | 
2 | 0 | 56.8 | 92.6 | 160.6 | 32.9 | 15.0 | CCOc1ccc(-n2c(SCC(=O)NCc3ccc(Cl)cc3)nc3sc4c(c3c2=O)CCN(C(C)=O)C4)cc1 [Compound 34] | 4.13 ± 1.39 | 97 | 
3 | 0.1 | 72.0 | 113.8 | 120.0 | 64.0 | 70.7 | CCOc1ccc(-n2c(SCC(=O)Nc3ccc(Cl)cc3)nc3sc4c(c3c2=O)CCN(C(C)=O)C4)cc1 [Compound 35] | 30 ± 10.2 | 107 | 
4 | 0 | 92.7 | 98.9 | 123.6 | 50.4 | 17.3 | CCOc1ccc(-n2c(SCC(=O)NCc3ccc(C)cc3)nc3sc4c(c3c2=O)CCN(C(C)=O)C4)cc1 [Compound 36] | 22 ± 12.7 | 96 | 
5 | 82 | 52.5 | 61.4 | 98.7 | 105.8 | 44.1 | CCOc1ccc(-n2c(SCC(=O)N(CC)Cc3ccccc3)nc3sc4c(c3c2=O)CCN(C)C4)cc1 [Compound 51] | 10 ± 3.6 | 107 | 
6 | 67.6 | 16.1 | 36.6 | 117.2 | 86.9 | 42.6 | CCOc1ccc(-n2c(SCC(=O)NCc3ccc(Cl)cc3)nc3sc4c(c3c2=O)CCN(C)C4)cc1 [Compound 52] | 8.6 ± 0.83 | 80 | 
7 | 49.1 | 31.2 | 59.2 | 69.2 | 43.0 | 23.0 | CCOc1ccc(-n2c(SCC(=O)Nc3ccc(C)cc3)nc3sc4c(c3c2=O)CCN(C)C4)cc1 [Compound 55] | 5.63 ± 1.75 | 127 | 
8 |  |  |  |  |  |  | CCc1ccc(-c2cc(C)no2)cc1S(=O)(=O)Nc1cc(OC)cc(OC)c1 [VH021] |  |  | 42
9 |  |  |  |  |  |  | CCOc1ccc(-c2cc(C(=O)NCCCN(CC)CC)c3ccccc3n2)cc1 [VH022] |  |  | 36
10 |  |  |  |  |  |  | CCN1CCCC1CNC(=O)c1cc(Nc2ccc(C)c(C)c2)nc2ccccc12 (stereo not drawn) [VH023] |  |  | 62
11 |  |  |  |  |  |  | CCOc1ccc(-c2cc(C(=O)NCCCN(CC)c3ccccc3)c3ccccc3n2)cc1 [VH024] |  |  | 74
